Patent publication US8921546B2, “Imidazolothiazole compounds for the treatment of disease” (Ambit Biosciences Corporation, priority 2006, dated 2014)
Counter-ions that a name gives are not always drawn. Like-named read-outs stand apart in the source and are kept apart here.

What was measured:
FLT3 = molecular target: T1, FLT3 (Homo sapiens, UniProt P36888); assay: Binding constant (Kd) measurement, phage-displayed kinase competition binding assay, FLT3
T1 construct: made in house
T1 sequence (P36888 27-993): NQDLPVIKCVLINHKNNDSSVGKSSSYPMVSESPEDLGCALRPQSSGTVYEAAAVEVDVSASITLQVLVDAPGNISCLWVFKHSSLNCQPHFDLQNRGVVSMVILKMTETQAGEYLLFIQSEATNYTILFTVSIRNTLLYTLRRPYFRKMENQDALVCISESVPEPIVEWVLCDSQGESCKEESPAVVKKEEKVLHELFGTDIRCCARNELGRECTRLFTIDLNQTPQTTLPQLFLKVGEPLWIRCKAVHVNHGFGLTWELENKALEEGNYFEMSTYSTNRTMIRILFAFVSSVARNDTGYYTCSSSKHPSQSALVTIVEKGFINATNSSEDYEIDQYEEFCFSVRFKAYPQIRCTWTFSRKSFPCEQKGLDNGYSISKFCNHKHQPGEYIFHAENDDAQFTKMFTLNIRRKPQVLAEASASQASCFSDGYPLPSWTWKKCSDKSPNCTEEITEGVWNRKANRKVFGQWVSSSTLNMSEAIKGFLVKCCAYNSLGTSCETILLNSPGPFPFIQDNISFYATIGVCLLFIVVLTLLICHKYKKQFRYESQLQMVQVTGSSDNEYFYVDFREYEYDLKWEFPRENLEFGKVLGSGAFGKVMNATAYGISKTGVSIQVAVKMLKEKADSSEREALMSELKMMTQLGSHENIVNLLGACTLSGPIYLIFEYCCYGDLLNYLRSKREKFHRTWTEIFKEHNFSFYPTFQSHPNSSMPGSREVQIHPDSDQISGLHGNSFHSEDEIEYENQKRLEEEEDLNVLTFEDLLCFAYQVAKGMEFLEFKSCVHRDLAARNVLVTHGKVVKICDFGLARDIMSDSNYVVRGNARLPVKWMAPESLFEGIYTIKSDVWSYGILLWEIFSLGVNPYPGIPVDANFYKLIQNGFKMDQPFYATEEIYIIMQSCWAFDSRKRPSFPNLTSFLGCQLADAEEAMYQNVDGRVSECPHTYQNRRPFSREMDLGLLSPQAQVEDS
Outline: (§1)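 Competition binding used human kinases fused to T7 phage and immobilized ATP-site ligands. Compound binding blocks kinase capture on the solid support. Bound phage-kinase was quantified by plaque assay or qPCR of the phage genome to give Kd.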

MV4-11 cells = assay: Cellular proliferation assay (MTS), MV4-11; assay type: cell-based; settings: Homo sapiens; MV4-11 cells, 72 hour incubation, MTS; read-out: Cellular Assay MV-proliferation IC50
Outline: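 FLT3-ITD MV4-11 cells, 10,000/well in DMEM with 0.5% serum, exposed to compounds 3 days at 37 °C, 5% CO2. Viability read colorimetrically after 2 h MTS tetrazolium reduction; WT-FLT3 RS4-11 cells (20,000/well, RPMI 0.5% serum, 2 days) serve as control.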

CSF1R = molecular target: T2, CSF1R (Homo sapiens, UniProt P07333); assay: Binding constant (Kd) measurement, phage-displayed kinase competition binding assay, CSF1R
T2 construct: made in house
Outline: as §1

KIT = molecular target: T3, KIT (Homo sapiens, UniProt P10721); assay: Binding constant (Kd) measurement, phage-displayed kinase competition binding assay, KIT
T3 construct: made in house
Outline: as §1

[1] = read-out: Binding Assay FLT3 Kd

T3 sequence (P10721 26-976): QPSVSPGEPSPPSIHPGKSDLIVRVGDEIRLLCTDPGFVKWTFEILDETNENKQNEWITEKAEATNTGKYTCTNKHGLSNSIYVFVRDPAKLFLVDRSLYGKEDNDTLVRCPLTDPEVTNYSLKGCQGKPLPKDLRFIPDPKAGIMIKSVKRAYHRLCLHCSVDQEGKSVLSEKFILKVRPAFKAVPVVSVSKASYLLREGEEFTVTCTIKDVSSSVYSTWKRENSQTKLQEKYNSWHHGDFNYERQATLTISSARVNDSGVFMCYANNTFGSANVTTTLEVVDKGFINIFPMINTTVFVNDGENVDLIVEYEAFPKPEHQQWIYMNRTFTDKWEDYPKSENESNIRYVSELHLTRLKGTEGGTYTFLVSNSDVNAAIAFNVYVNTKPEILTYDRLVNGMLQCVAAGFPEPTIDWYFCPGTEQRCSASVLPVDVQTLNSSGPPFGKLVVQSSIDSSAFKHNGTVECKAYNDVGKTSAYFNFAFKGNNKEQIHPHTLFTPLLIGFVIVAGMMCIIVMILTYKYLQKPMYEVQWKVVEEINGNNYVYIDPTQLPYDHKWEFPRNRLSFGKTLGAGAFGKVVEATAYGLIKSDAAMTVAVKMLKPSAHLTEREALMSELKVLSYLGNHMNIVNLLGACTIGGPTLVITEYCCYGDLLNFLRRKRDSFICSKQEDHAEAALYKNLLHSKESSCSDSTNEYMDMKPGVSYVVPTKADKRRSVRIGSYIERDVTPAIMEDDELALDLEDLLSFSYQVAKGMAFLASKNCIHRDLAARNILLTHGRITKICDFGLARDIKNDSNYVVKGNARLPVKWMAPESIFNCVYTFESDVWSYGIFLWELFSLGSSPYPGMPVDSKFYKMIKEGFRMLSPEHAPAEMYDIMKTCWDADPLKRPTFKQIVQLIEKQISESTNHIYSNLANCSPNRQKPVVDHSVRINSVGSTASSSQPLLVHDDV
T2 sequence (P07333 20-972): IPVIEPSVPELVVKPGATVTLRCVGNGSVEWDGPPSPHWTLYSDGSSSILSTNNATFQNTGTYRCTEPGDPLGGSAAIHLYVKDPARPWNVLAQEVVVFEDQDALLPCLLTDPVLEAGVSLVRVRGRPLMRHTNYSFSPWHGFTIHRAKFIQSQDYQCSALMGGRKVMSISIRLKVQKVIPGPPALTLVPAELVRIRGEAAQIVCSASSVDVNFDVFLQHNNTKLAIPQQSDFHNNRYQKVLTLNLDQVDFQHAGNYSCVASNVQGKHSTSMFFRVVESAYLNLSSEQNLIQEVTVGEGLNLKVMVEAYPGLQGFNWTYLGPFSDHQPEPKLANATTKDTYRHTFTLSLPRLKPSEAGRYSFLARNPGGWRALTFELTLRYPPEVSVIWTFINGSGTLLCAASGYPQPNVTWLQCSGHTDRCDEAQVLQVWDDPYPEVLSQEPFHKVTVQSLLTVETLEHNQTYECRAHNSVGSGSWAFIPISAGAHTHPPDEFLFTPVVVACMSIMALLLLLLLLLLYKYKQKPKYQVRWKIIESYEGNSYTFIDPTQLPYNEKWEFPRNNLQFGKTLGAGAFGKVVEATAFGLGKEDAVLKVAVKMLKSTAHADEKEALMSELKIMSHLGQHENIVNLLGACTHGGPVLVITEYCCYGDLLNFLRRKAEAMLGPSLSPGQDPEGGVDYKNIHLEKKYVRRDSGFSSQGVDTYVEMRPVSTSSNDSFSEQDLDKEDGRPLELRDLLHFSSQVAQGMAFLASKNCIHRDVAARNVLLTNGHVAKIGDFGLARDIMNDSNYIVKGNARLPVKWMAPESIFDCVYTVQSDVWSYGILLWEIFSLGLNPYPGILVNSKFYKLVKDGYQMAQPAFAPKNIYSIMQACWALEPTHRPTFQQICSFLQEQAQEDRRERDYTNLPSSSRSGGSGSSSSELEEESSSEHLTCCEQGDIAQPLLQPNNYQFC

| Kd (FLT3; [1]) | Structure (SMILES) | IC50 (MV4-11 cells) | Kd (CSF1R) | Kd (KIT) | Kd (FLT3) |
| --- | --- | --- | --- | --- | --- |
| < 10 nM | CC(C)(C)c1cc(NC(=O)Nc2ccc(-c3cn4c(n3)sc3cc(CCC(=O)N5CCOCC5)ccc34)cc2)no1 [Compound C7, N-(5-tert-butyl-isoxazol-3-yl)-N′-{4-[7-(3-morpholino-4-yl-3-oxo-propyl)imidazo[2,1-b][1,3]benzothiazol-2-yl]phenyl}urea] | < 10 nM | 10 to 100 nM | < 10 nM |  |
|  | CCN(CC)CCNC(=O)c1ccc2c(c1)sc1nc(-c3ccc(NC(=O)Nc4cc(C(C)(C)C)on4)cc3)cn12 [Compound C22, 2-{4-[3-(5-tert-butyl-isoxazol-3-yl)-ureido]-phenyl}-imidazo[2,1-b][1,3]benzothiazole-7-carboxylic acid (2-diethylamino-ethyl)-amide hydrochloride] | < 10 nM | 10 to 100 nM | < 10 nM | < 10 nM |
|  | CCN(CC)C(=O)CCc1ccc2c(c1)sc1nc(-c3ccc(NC(=O)Nc4cc(C(C)(C)C)on4)cc3)cn12 [Compound C8, 3-(2-{4-[3-(5-tert-butyl-isoxazol-3-yl)-ureido]-phenyl}-benzo[d]imidazo[2,1-b]thiazol-7-yl)-N,N-diethyl-propionamide] | < 10 nM | 10 to 100 nM | < 10 nM | < 10 nM |
| < 10 nM | Cc1nc2cc(NC(=O)Nc3ccc(-c4cn5c(n4)sc4cc(OCCN6CCOCC6)ccc45)cc3)ccc2s1 [Compound F8, 1-(2-methyl-benzothiazol-5-yl)-3-{4-[7-(2-morpholin-4-yl-ethoxy)-benzo[d]imidazo[2,1-b]thiazol-2-yl]-phenyl}-urea] | < 10 nM | 100 to 1000 nM | 10 to 100 nM |  |
|  | CC(C)(C)c1cc(NC(=O)Nc2ccc(-c3cn4c(n3)sc3cc(C(=O)NCCN5CCCC5)ccc34)cc2)no1 [Compound C21, 2-{4-[3-(5-tert-butyl-isoxazol-3-yl)-ureido]-phenyl}-imidazo[2,1-b][1,3]benzothiazole-7-carboxylic Acid (2-Pyrrolidin-1-yl-ethyl)-amide hydrochloride] | < 10 nM | 10 to 100 nM | < 10 nM | < 10 nM |
| < 10 nM | O=C(Cc1noc2ccccc12)Nc1ccc(-c2cn3c(n2)sc2cc(OCCN4CCOCC4)ccc23)cc1 [Compound E2, 2-benzo[d]isoxazol-3-yl-N-{4-[7-(2-morpholin-4-yl-ethoxy)-benzo[d]imidazo[2,1-b]thiazol-2-yl]-phenyl}-acetamide] | < 10 nM | > 1000 nM | 10 to 100 nM |  |
|  | CC(C)(C)c1cc(NC(=O)Nc2ccc(-c3cn4c(n3)sc3cc(CCN5CCOCC5)ccc34)cc2)no1 [Compound D5, 1-(5-tert-Butyl-isoxazol-3-yl)-3-{4-[7-(2-morpholin-4-yl-ethyl)-imidazo[2,1-b][1,3]benzothiazol-2-yl]-phenyl}-urea hydrochloride] | < 10 nM | < 10 nM | < 10 nM | < 10 nM |
|  | CC(C)(C)c1cc(NC(=O)Nc2ccc(-c3cn4c(n3)sc3cc(C(=O)N5CCNCC5)ccc34)cc2)no1 [Compound C24, 1-(5-tert-butyl-isoxazol-3-yl)-3-{4-[7-(piperazine-1-carbonyl)-imidazo[2,1-b][1,3]benzothiazol-2-yl]-phenyl}-urea hydrochloride] | < 10 nM | 10 to 100 nM | < 10 nM | < 10 nM |
|  | CC(C)[C@@H](N)C(=O)Oc1ccc2c(c1)sc1nc(-c3ccc(NC(=O)Nc4cc(C(C)(C)C)on4)cc3)cn12 [Compound B5, (2R)-2-amino-3-methyl-butyric acid 2-{4-[3-(5-tert-butyl-isoxazol-3-yl)-ureido]-phenyl}-benzo[d]imidazo[2,1-b]thiazol-7-yl ester] | < 10 nM | 10 to 100 nM | 10 to 100 nM | < 10 nM |
|  | CCN(CC)CCNC(=O)CCc1ccc2c(c1)sc1nc(-c3ccc(NC(=O)Nc4cc(C(C)(C)C)on4)cc3)cn12 [Compound C12, 3-(2-{4-[3-(5-tert-butyl-isoxazol-3-yl)-ureido]-phenyl}-benzo[d]imidazo[2,1-b]thiazol-7-yl)-N-(2-diethylamino-ethyl)-propionamide hydrochloride] | < 10 nM | 10 to 100 nM | < 10 nM | < 10 nM |
